# Tested on: Plasmodium falciparum
# Test: Plasmodium falciparum in vitro [3H]-hypoxanthine parasite growth inhibition assay
# Assay type: cell-based
# Details: Erythrocyte, P. falciparum asexual blood stage parasites in human erythrocytes, [3H]-hypoxanthine uptake, read-out: Act Class (IC50 activity level)
row,SMILES,IC50 [nM]
1,"CC(C)(C)Nc1ncc2nc(Nc3cccc(Cl)c3)n(CCn3ccnc3)c2n1 [Cpd 1, 9-(2-(1H-imidazol-1-yl)ethyl)-N2-tert-butyl-N8-(3-chlorophenyl)-9H-purine-2,8-diamine]",200 to 500
2,"CC(C)(C)Nc1ncc2nc(Nc3ccc(C(F)(F)F)cc3)n(C3CCNCC3)c2n1 [Cpd 2, N2-tert-butyl-9-(piperidin-4-yl)-N8-(4-(trifluoromethyl)phenyl)-9H-purine-2,8-diamine]",200 to 500
3,"CC(C)(C)Nc1ncc2nc(Nc3cccc(C(F)(F)F)c3)n(C3CCNCC3)c2n1 [Cpd 3, N2-tert-butyl-9-(piperidin-4-yl)-N8-(3-(trifluoromethyl)phenyl)-9H-purine-2,8-diamine]",< 100
4,"CC(C)(C)Nc1ncc2nc(Nc3cccc(C(F)(F)F)c3)n(C3CCN(CCN)CC3)c2n1 [Cpd 4, 9-(1-(2-aminoethyl)piperidin-4-yl)-N2-tert-butyl-N8-(3-(trifluoromethyl)phenyl)-9H-purine-2,8-diamine]",< 100
5,"CC(C)(C)Nc1ncc2nc(Nc3ccc(C(F)(F)F)cc3)n(C3CCN(CCN)CC3)c2n1 [Cpd 5, 9-(1-(2-aminoethyl)piperidin-4-yl)-N2-tert-butyl-N8-(4-(trifluoromethyl)phenyl)-9H-purine-2,8-diamine]",100 to 200
6,"CC(C)(C)Nc1ncc2nc(Nc3ccc(Cl)c(Cl)c3)n(C3CCNCC3)c2n1 [Cpd 6, N2-tert-butyl-N8-(3,4-dichlorophenyl)-9-(piperidin-4-yl)-9H-purine-2,8-diamine]",< 100
7,"CC(C)(C)Nc1ncc2nc(Nc3ccc(Cl)cc3)n(C3CCNCC3)c2n1 [Cpd 7, N2-tert-butyl-N8-(4-chlorophenyl)-9-(piperidin-4-yl)-9H-purine-2,8-diamine]",100 to 200
8,"CC(C)(C)Nc1ncc2nc(Nc3cccc(C(F)(F)F)c3)n(CCCN)c2n1 [Cpd 11, 9-(3-aminopropyl)-N2-tert-butyl-N8-(3-(trifluoromethyl)phenyl)-9H-purine-2,8-diamine]",200 to 500
9,"CC(C)(C)Nc1ncc2nc(Nc3ccc(C#N)cc3)n(C3CCNCC3)c2n1 [Cpd 14, 4-(2-(tert-butylamino)-9-(piperidin-4-yl)-9H-purin-8-ylamino)benzonitrile]",500 to 1200
10,"CC1(Nc2ncc3nc(Nc4ccc(C(F)(F)F)cc4)n(C4CCNCC4)c3n2)CCOCC1 [Cpd 15, N2-(4-methyltetrahydro-2H-pyran-4-yl)-9-(piperidin-4-yl)-N8-(4-(trifluoromethyl)phenyl)-9H-purine-2,8-diamine]",100 to 200
11,"CC1(Nc2ncc3nc(Nc4cccc(Cl)c4)n(CCN4CCCCC4)c3n2)CCOCC1 [Cpd 16, N8-(3-chlorophenyl)-N2-(4-methyltetrahydro-2H-pyran-4-yl)-9-(2-(piperidin-1-yl)ethyl)-9H-purine-2,8-diamine]",500 to 1200
12,"CC1(Nc2ncc3nc(Nc4cccc(Cl)c4)n(CCN4CCCC4)c3n2)CCOCC1 [Cpd 17, N8-(3-chlorophenyl)-N2-(4-methyltetrahydro-2H-pyran-4-yl)-9-(2-(pyrrolidin-1-yl)ethyl)-9H-purine-2,8-diamine]",500 to 1200
13,"CC(C)(C)Nc1ncc2nc(Nc3cccc(C(F)(F)F)c3)n(CCC3CCNC3)c2n1 (stereo not shown) [Cpd 18, N2-tert-butyl-9-(2-(pyrrolidin-3-yl)ethyl)-N8-(3-(trifluoromethyl)phenyl)-9H-purine-2,8-diamine]",100 to 200
14,"CC(C)(C)Nc1ncc2nc(Nc3cccc(C(F)(F)F)c3)n(CCC3CCCN3)c2n1 (stereo not shown) [Cpd 19, N2-tert-butyl-9-(2-(pyrrolidin-2-yl)ethyl)-N8-(3-(trifluoromethyl)phenyl)-9H-purine-2,8-diamine]",200 to 500
15,"CC(C)(C)Nc1ncc2nc(Nc3cc(Cl)cc(Cl)c3)n(C3CCNCC3)c2n1 [Cpd 20, N2-tert-butyl-N8-(3,5-dichlorophenyl)-9-(piperidin-4-yl)-9H-purine-2,8-diamine]",< 100
16,"CC(C)(C)Nc1ncc2nc(Nc3ccc(OC(F)(F)F)cc3)n(C3CCNCC3)c2n1 [Cpd 21, N2-tert-butyl-9-(piperidin-4-yl)-N8-(4-(trifluoromethoxy)phenyl)-9H-purine-2,8-diamine]",100 to 200
17,"CC(C)(C)Nc1ncc2nc(Nc3cccc(C(F)(F)F)c3)n(CCN3CCNCC3)c2n1 [Cpd 22, N2-tert-butyl-9-(2-(piperazin-1-yl)ethyl)-N8-(3-(trifluoromethyl)phenyl)-9H-purine-2,8-diamine]",500 to 1200
18,"CC(C)(C)Nc1ncc2nc(Nc3cccc(C(F)(F)F)c3)n(CC3CCNCC3)c2n1 [Cpd 23, N2-tert-butyl-9-(piperidin-4-ylmethyl)-N8-(3-(trifluoromethyl)phenyl)-9H-purine-2,8-diamine]",500 to 1200
19,"CC(C)(C)Nc1ncc2nc(Nc3cccc(C(F)(F)F)c3)n(CC3CCNC3)c2n1 (stereo not shown) [Cpd 24, N2-tert-butyl-9-(pyrrolidin-3-ylmethyl)-N8-(3-(trifluoromethyl)phenyl)-9H-purine-2,8-diamine]",200 to 500
20,"CC1(Nc2ncc3nc(Nc4cccc(C(F)(F)F)c4)n(C4CCNCC4)c3n2)CCOCC1 [Cpd 25, N2-(4-methyltetrahydro-2H-pyran-4-yl)-9-(piperidin-4-yl)-N8-(3-(trifluoromethyl)phenyl)-9H-purine-2,8-diamine]",500 to 1200

row,SMILES,IC50 [nM]
1,"CC(C)(C)Nc1ncc2nc(Nc3cc(F)cc(Cl)c3)n(C3CCNCC3)c2n1 [Cpd 26, N2-tert-butyl-N8-(3-chloro-5-fluorophenyl)-9-(piperidin-4-yl)-9H-purine-2,8-diamine]",< 100
2,"CC(C)(C)Nc1ncc2nc(Nc3cc(Cl)cc(C(F)(F)F)c3)n(C3CCNCC3)c2n1 [Cpd 27, N2-tert-butyl-N8-(3-chloro-5-(trifluoromethyl)phenyl)-9-(piperidin-4-yl)-9H-purine-2,8-diamine]",< 100
3,"CC(C)(C)Nc1ncc2nc(Nc3cc(F)cc(F)c3)n(C3CCNCC3)c2n1 [Cpd 28, N2-tert-butyl-N8-(3,5-difluorophenyl)-9-(piperidin-4-yl)-9H-purine-2,8-diamine]",100 to 200
4,"CC(C)(C)Nc1ncc2nc(Nc3cccc(OC(F)(F)F)c3)n(C3CCNCC3)c2n1 [Cpd 29, N2-tert-butyl-9-(piperidin-4-yl)-N8-(3-(trifluoromethoxy)phenyl)-9H-purine-2,8-diamine]",< 100
5,"CC(C)(C)Nc1ncc2nc(Nc3cncc(Cl)c3)n(C3CCNCC3)c2n1 [Cpd 30, N2-tert-butyl-N8-(5-chloropyridin-3-yl)-9-(piperidin-4-yl)-9H-purine-2,8-diamine]",500 to 1200
6,"CC(C)(C)Nc1ncc2nc(Nc3ccnc(C(F)(F)F)c3)n(C3CCNCC3)c2n1 [Cpd 31, N2-tert-butyl-9-(piperidin-4-yl)-N8-(2-(trifluoromethyl)pyridin-4-yl)-9H-purine-2,8-diamine]",200 to 500
7,"CN(C)CCCn1c(Nc2cccc(C(F)(F)F)c2)nc2cnc(NC(C)(C)C)nc21 [Cpd 32, N2-tert-butyl-9-(3-(dimethylamino)propyl)-N8-(3-(trifluoromethyl)phenyl)-9H-purine-2,8-diamine]",500 to 1200
8,"CC(C)(C)Nc1ncc2nc(Nc3cccc(C(F)F)c3)n(C3CCNCC3)c2n1 [Cpd 33, N2-tert-butyl-N8-(3-(difluoromethyl)phenyl)-9-(piperidin-4-yl)-9H-purine-2,8-diamine]",200 to 500
9,"Clc1cc(Cl)cc(Nc2nc3cnc(NC4CC4)nc3n2C2CCNCC2)c1 [Cpd 34, N2-cyclopropyl-N8-(3,5-dichlorophenyl)-9-(piperidin-4-yl)-9H-purine-2,8-diamine]",200 to 500
10,"CC(C)(C)Nc1ncc2nc(Nc3cc(Cl)cc(Cl)c3)n(C3CCN(CCN)CC3)c2n1 [Cpd 35, 9-(1-(2-aminoethyl)piperidin-4-yl)-N2-tert-butyl-N8-(3,5-dichlorophenyl)-9H-purine-2,8-diamine]",200 to 500
11,"CN1CCC(n2c(Nc3ccc(Cl)c(Cl)c3)nc3cnc(NC(C)(C)C)nc32)CC1 [Cpd 36, N2-tert-butyl-N8-(3,4-dichlorophenyl)-9-(1-methylpiperidin-4-yl)-9H-purine-2,8-diamine]",< 100
12,"CCN1CCC(n2c(Nc3ccc(Cl)c(Cl)c3)nc3cnc(NC(C)(C)C)nc32)CC1 [Cpd 37, N2-tert-butyl-N8-(3,4-dichlorophenyl)-9-(1-ethylpiperidin-4-yl)-9H-purine-2,8-diamine]",< 100
13,"CC(C)(C)Nc1ncc2nc(Nc3cc(Cl)cc(C(F)(F)F)c3)n(C3CCN(CCN)CC3)c2n1 [Cpd 39, 9-(1-(2-aminoethyl)piperidin-4-yl)-N2-tert-butyl-N8-(3-chloro-5-(trifluoromethyl)phenyl)-9H-purine-2,8-diamine]",< 100
14,"FC(F)(F)c1cc(Cl)cc(Nc2nc3cnc(NC4CC4)nc3n2C2CCNCC2)c1 [Cpd 40, N8-(3-chloro-5-(trifluoromethyl)phenyl)-N2-cyclopropyl-9-(piperidin-4-yl)-9H-purine-2,8-diamine]",< 100
15,"CC1(Nc2ncc3nc(Nc4cc(Cl)cc(Cl)c4)n(C4CCNCC4)c3n2)CC1 [Cpd 41, N8-(3,5-dichlorophenyl)-N2-(1-methylcyclopropyl)-9-(piperidin-4-yl)-9H-purine-2,8-diamine]",< 100
16,"CC1(Nc2ncc3nc(Nc4cc(Cl)cc(C(F)(F)F)c4)n(C4CCNCC4)c3n2)CC1 [Cpd 42, N8-(3-chloro-5-(trifluoromethyl)phenyl)-N2-(1-methylcyclopropyl)-9-(piperidin-4-yl)-9H-purine-2,8-diamine]",< 100
17,"CC(C)Nc1ncc2nc(Nc3cc(Cl)cc(Cl)c3)n(C3CCNCC3)c2n1 [Cpd 43, N8-(3,5-dichlorophenyl)-N2-isopropyl-9-(piperidin-4-yl)-9H-purine-2,8-diamine]",< 100
18,"CC(C)Nc1ncc2nc(Nc3cc(Cl)cc(C(F)(F)F)c3)n(C3CCNCC3)c2n1 [Cpd 44, N8-(3-chloro-5-(trifluoromethyl)phenyl)-N2-isopropyl-9-(piperidin-4-yl)-9H-purine-2,8-diamine]",< 100
19,"FC(F)(F)c1cccc(Nc2nc3cnc(NC4CCOCC4)nc3n2C2CCNCC2)c1 [Cpd 46, 9-(piperidin-4-yl)-N2-(tetrahydro-2H-pyran-4-yl)-N8-(3-(trifluoromethyl)phenyl)-9H-purine-2,8-diamine]",500 to 1200
20,"CC(C)(C)Nc1ncc2nc(Nc3cccc(Cl)c3F)n(C3CCNCC3)c2n1 [Cpd 47, N2-tert-butyl-N8-(3-chloro-2-fluorophenyl)-9-(piperidin-4-yl)-9H-purine-2,8-diamine]",500 to 1200

# Reference: patent US11344554B2, “Animal and human anti-malarial agents” (Celgene Corporation, priority 2016, dated 2022)
